Source: ChEMBL document CHEMBL4373740, “Synthesis and biological evaluation of new MET inhibitors with 1,6-naphthyridinone scaffold” (Eur J Med Chem, 2020)

How the values were obtained:
[1] = target: Dual specificity tyrosine-phosphorylation-regulated kinase 4 (Homo sapiens) (UniProt Q9NR20); experiment: (§1) Inhibition of recombinant human GST-tagged DYRK4 expressed in baculovirus system at 1 uM using biotin as substrate preincubated for 5 mins followed by substrate addition and measured after 30 to 60 mins in presence of ATP by HTRF assay relative to control
Sequence of Dual specificity tyrosine-phosphorylation-regulated kinase 4 (Homo sapiens) (Q9NR20 whole entry): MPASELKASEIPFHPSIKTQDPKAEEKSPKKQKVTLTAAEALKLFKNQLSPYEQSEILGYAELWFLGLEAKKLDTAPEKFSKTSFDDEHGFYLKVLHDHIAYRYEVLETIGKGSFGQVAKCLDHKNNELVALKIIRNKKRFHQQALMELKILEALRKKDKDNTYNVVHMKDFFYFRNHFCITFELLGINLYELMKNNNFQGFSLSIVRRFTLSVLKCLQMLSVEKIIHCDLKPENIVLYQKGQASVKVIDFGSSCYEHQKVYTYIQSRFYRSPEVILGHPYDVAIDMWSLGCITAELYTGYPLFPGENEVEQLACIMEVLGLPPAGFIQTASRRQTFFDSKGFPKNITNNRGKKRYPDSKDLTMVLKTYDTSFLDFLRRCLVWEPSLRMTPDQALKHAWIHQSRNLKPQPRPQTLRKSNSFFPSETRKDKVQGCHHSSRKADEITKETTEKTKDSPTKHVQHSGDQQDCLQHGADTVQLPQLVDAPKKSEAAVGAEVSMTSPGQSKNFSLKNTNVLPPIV

[2] = target: Macrophage-stimulating protein receptor (Homo sapiens, UniProt Q04912); experiment: Inhibition of recombinant human GST-tagged RON expressed in baculovirus system using biotin as substrate preincubated for 5 mins followed by substrate addition and measured after 30 to 60 mins in presence of ATP by HTRF assay
[3] = target: Tyrosine-protein kinase receptor UFO (Homo sapiens) (UniProt P30530); experiment: as §1, with “recombinant […]” for “recombinant”, “human N-terminal” for “human”, “AXL (473 to end residues)” for “DYRK4”, “infected Sf21 insect cells” for “system”
Sequence of Tyrosine-protein kinase receptor UFO (Homo sapiens) (P30530 whole entry): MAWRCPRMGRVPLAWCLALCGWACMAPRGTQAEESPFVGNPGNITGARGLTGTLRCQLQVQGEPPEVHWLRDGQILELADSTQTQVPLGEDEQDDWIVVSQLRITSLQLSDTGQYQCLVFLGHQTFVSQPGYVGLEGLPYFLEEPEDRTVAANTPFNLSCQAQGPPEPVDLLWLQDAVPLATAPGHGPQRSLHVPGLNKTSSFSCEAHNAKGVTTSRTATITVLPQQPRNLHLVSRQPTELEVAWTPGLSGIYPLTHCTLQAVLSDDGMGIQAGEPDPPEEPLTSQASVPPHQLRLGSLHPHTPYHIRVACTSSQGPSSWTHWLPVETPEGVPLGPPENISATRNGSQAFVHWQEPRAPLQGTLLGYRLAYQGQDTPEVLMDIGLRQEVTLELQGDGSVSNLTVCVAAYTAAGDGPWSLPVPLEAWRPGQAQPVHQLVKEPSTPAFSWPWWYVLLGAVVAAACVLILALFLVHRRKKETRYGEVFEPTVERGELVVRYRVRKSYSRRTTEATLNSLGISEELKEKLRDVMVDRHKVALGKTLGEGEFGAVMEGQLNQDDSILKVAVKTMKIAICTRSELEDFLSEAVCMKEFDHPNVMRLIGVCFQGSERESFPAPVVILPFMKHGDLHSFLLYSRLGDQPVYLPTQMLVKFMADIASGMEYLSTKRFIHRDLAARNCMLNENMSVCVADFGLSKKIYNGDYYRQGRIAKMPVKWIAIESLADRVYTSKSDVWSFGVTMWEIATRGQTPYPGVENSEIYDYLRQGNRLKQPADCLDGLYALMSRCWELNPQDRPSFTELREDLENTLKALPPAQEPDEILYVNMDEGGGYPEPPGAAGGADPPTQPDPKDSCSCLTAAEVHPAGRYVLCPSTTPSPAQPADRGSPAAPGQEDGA

[4] = Clearance in Sprague-Dawley rat at 5.0 mg/kg, ig measured for 15 min to 72 hrs by LC-MS/MS analysis; assay type: ADME, organism-based; conditions: in vivo, po
[5] = Cmax in Sprague-Dawley rat at 1.0 mg/kg, iv measured for 5 min to 72 hrs by LC-MS/MS analysis; assay type: ADME, organism-based; parameters: dose 1 mg/kg, route intravenous; conditions: in vivo
[6] = target: Serine/threonine-protein kinase TBK1 (Homo sapiens) (UniProt Q9UHD2); experiment: Inhibition of recombinant full length human GST-tagged TBK1 expressed in insect cells at 1 uM using biotin as substrate preincubated for 5 mins followed by substrate addition and measured after 30 to 60 mins in presence of ATP by HTRF assay relative to control
[7] = target: Insulin-like growth factor 1 receptor (Homo sapiens) (UniProt P08069); experiment: Inhibition of recombinant full length human His-tagged IGF1R expressed in baculovirus expression system at 1 uM using biotin as substrate preincubated for 5 mins followed by substrate addition and measured after 30 to 60 mins in presence of ATP by HTRF assay relative to control
[8] = Cmax in Sprague-Dawley rat at 5.0 mg/kg, ig measured for 15 min to 72 hrs by LC-MS/MS analysis; assay type: ADME, organism-based; parameters: dose 5 mg/kg, route intragastric; conditions: in vivo, po
[9] = AUC (0 to infinity) in Sprague-Dawley rat at 1.0 mg/kg, iv measured for 5 min to 72 hrs by LC-MS/MS analysis; assay type: ADME, organism-based; parameters: dose 1 mg/kg, time infinity, route intravenous; conditions: in vivo
[10] = target: Serine/threonine-protein kinase PLK3 (Homo sapiens) (UniProt Q9H4B4); experiment: Inhibition of recombinant full length human GST-tagged PLK3 expressed in baculovirus expression system at 1 uM using biotin as substrate preincubated for 5 mins followed by substrate addition and measured after 30 to 60 mins in presence of ATP by HTRF assay relative to control
Sequence of Serine/threonine-protein kinase PLK3 (Homo sapiens) (Q9H4B4 whole entry, looked up): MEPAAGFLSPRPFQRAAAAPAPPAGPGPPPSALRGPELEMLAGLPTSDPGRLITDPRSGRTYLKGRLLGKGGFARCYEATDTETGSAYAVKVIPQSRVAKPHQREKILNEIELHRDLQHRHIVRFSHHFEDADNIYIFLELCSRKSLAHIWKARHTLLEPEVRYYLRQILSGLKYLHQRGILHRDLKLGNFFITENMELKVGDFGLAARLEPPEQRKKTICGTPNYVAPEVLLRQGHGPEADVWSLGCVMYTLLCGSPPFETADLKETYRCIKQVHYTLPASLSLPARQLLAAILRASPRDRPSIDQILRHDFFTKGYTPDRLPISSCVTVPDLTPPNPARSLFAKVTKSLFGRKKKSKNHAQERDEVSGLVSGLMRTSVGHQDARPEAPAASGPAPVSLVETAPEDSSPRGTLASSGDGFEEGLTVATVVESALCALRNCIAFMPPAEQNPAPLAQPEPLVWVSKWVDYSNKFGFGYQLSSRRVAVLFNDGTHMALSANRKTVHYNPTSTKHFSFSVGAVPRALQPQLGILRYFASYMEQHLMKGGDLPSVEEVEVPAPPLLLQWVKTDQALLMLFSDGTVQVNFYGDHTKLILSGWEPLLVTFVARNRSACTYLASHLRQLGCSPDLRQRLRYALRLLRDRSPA

[11] = Half life in Sprague-Dawley rat at 5.0 mg/kg, ig measured for 15 min to 72 hrs by LC-MS/MS analysis; assay type: ADME, organism-based; conditions: in vivo, po
[12] = target: Fibroblast growth factor receptor 1 (Homo sapiens) (UniProt P11362); experiment: Inhibition of recombinant human N-terminal His-tagged FGFR1 catalytic domain (399 to 822 residues) expressed in baculovirus infected Sf21 insect cells at 1 uM using biotin as substrate preincubated for 5 mins followed by substrate addition and measured after 30 to 60 mins in presence of ATP by HTRF assay relative to control
[13] = target: Tyrosine-protein kinase JAK3 (Homo sapiens) (UniProt P52333); experiment: Inhibition of recombinant full length human GST-tagged JAK3 expressed in baculovirus expression system at 1 uM using biotin as substrate preincubated for 5 mins followed by substrate addition and measured after 30 to 60 mins in presence of ATP by HTRF assay relative to control
[14] = target: High affinity nerve growth factor receptor (Homo sapiens, UniProt P04629); experiment: Inhibition of recombinant human His-tagged TRKA catalytic domain (441 to 796 residues) expressed in baculovirus expression system using biotin as substrate preincubated for 5 mins followed by substrate addition and measured after 30 to 60 mins in presence of ATP by HTRF assay
Sequence of High affinity nerve growth factor receptor (P04629 whole entry, the tested form may be a part): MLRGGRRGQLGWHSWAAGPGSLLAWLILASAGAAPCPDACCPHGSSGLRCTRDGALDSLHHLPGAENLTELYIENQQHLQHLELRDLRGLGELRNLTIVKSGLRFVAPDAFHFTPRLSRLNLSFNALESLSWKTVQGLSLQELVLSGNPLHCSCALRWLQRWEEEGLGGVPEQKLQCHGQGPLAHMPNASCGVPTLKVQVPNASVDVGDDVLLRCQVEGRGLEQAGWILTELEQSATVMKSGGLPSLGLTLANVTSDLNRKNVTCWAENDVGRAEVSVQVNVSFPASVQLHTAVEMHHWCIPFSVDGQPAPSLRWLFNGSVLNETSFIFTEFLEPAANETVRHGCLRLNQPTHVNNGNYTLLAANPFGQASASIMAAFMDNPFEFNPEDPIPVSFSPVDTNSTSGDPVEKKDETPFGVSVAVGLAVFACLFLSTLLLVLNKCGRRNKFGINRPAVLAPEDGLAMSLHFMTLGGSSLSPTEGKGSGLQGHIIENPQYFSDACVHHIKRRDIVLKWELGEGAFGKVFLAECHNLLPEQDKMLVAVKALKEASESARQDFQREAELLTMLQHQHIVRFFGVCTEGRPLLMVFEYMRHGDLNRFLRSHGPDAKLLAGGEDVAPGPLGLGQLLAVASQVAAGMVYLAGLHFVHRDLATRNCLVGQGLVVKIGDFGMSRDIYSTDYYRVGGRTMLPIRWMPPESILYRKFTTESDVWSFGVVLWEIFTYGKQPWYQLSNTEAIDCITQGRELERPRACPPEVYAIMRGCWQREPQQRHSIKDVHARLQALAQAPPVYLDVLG

[15] = target: Tyrosine-protein kinase Lck (Homo sapiens) (UniProt P06239); experiment: Inhibition of recombinant full length human His-tagged LCK expressed in baculovirus expression system at 1 uM using biotin as substrate preincubated for 5 mins followed by substrate addition and measured after 30 to 60 mins in presence of ATP by HTRF assay relative to control
Sequence of Tyrosine-protein kinase Lck (Homo sapiens) (P06239 2-509 limits assumed): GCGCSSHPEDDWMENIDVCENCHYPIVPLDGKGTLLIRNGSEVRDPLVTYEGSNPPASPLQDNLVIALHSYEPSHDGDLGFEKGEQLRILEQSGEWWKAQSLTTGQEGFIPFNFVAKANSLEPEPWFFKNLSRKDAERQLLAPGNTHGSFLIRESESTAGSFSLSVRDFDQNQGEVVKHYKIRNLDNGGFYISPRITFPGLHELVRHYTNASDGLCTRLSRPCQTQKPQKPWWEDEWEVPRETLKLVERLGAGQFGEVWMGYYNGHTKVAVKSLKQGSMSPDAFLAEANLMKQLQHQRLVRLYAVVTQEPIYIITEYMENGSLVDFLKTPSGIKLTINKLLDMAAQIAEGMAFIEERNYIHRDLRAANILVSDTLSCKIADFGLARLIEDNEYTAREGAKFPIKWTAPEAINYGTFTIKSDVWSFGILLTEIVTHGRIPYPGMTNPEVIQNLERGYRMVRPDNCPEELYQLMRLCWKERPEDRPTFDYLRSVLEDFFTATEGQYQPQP

[16] = Mean residence time in Sprague-Dawley rat at 1.0 mg/kg, iv measured for 5 min to 72 hrs by LC-MS/MS analysis; assay type: ADME, organism-based; conditions: in vivo
[17] = target: Tyrosine-protein kinase BTK (Homo sapiens) (UniProt Q06187); experiment: Inhibition of recombinant full length human His-tagged BTK expressed in baculovirus expression system at 1 uM using biotin as substrate preincubated for 5 mins followed by substrate addition and measured after 30 to 60 mins in presence of ATP by HTRF assay relative to control
Sequence of Tyrosine-protein kinase BTK (Homo sapiens) (Q06187 whole entry): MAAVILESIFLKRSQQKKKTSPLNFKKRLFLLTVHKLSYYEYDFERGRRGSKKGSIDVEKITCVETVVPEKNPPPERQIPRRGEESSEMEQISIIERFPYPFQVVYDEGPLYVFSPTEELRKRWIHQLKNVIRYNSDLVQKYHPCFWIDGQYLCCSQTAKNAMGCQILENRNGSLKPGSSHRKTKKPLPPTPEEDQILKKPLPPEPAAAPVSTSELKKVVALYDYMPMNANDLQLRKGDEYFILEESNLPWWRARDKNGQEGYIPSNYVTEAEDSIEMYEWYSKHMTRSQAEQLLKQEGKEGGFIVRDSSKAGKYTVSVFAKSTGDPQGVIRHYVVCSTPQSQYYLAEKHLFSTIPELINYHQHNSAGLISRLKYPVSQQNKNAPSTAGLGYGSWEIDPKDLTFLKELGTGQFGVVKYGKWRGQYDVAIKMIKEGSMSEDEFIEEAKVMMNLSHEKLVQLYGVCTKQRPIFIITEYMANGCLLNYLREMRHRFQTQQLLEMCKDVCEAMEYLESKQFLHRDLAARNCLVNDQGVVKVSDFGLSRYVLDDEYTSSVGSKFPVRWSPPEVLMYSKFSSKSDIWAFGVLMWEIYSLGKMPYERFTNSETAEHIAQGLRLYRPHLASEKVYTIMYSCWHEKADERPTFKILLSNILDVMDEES

[18] = target: Tyrosine-protein kinase Lyn (Homo sapiens) (UniProt P07948); experiment: Inhibition of recombinant full length human GST-tagged LYN B expressed in baculovirus expression system at 1 uM using biotin as substrate preincubated for 5 mins followed by substrate addition and measured after 30 to 60 mins in presence of ATP by HTRF assay relative to control
Sequence of Tyrosine-protein kinase Lyn (Homo sapiens) (P07948 2-512 limits assumed): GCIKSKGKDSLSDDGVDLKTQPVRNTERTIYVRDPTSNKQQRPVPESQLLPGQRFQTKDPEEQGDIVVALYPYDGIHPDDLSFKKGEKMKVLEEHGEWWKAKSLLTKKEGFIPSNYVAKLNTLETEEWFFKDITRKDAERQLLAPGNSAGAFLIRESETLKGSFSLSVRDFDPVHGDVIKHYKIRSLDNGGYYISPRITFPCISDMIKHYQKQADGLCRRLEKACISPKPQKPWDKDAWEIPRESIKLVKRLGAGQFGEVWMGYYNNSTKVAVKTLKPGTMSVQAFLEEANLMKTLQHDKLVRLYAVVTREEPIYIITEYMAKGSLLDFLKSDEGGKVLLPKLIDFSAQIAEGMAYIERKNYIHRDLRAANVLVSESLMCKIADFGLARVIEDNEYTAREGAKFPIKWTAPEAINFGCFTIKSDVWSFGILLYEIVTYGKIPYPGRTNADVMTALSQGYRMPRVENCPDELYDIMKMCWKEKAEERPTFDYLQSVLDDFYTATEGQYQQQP

[19] = target: Epidermal growth factor receptor (Homo sapiens) (UniProt P00533); experiment: Inhibition of recombinant human GST-tagged EGFR (668 to 1210 residues) expressed in baculovirus expression system at 1 uM using biotin as substrate preincubated for 5 mins followed by substrate addition and measured after 30 to 60 mins in presence of ATP by HTRF assay relative to control
MKN-45 = experiment: Antiproliferative activity against human MKN45 cells at 10 uM incubated for 72 hrs by MTT assay relative to control; assay type: functional; conditions: MKN-45, 72 h
[20] = target: ALK tyrosine kinase receptor (Homo sapiens) (UniProt Q9UM73); experiment: Inhibition of human GST-tagged ALK cytoplasmic domain (1060 to end residues) expressed in sf9 cells at 1 uM using biotin as substrate preincubated for 5 mins followed by substrate addition and measured after 30 to 60 mins in presence of ATP by HTRF assay relative to control
[21] = target: Inhibitor of nuclear factor kappa-B kinase subunit beta (Homo sapiens) (UniProt O14920); experiment: Inhibition of recombinant full length human GST-tagged IKBKB expressed in baculovirus expression system at 1 uM using biotin as substrate preincubated for 5 mins followed by substrate addition and measured after 30 to 60 mins in presence of ATP by HTRF assay relative to control
[22] = target: Hepatocyte growth factor receptor (Homo sapiens, UniProt P08581); experiment: Inhibition of purified recombinant MET kinase domain (unknown origin) using biotin as substrate preincubated for 5 mins followed by substrate addition and measured after 30 to 60 mins in presence of ATP by HTRF assay
[23] = Volume of distribution in Sprague-Dawley rat at 5.0 mg/kg, ig measured for 15 min to 72 hrs by LC-MS/MS analysis; assay type: ADME, organism-based; conditions: in vivo, po
[24] = Volume of distribution in Sprague-Dawley rat at 1.0 mg/kg, iv measured for 5 min to 72 hrs by LC-MS/MS analysis; assay type: ADME, organism-based; conditions: in vivo
[25] = Half life in Sprague-Dawley rat at 1.0 mg/kg, iv measured for 5 min to 72 hrs by LC-MS/MS analysis; assay type: ADME, organism-based; conditions: in vivo

Compound: Cn1cc(-c2ccc(F)cc2)c(=O)c2c(Nc3ccc(Oc4ccnc(NC(=O)C5CC5)c4)c(F)c3)nccc21
- inhibition [1]: < 50%
- IC50 [2]: 346 nM
- inhibition [3]: > 80%
- CL/F [4]: 0.333 mL/min/kg
- Cmax [5]: 6500 ng/mL
- inhibition [6]: < 50%
- inhibition [7]: < 50%
- Cmax [8]: 7800 ng/mL
- AUC(0-inf) [9]: 80600 ng·h/mL
- inhibition [10]: < 50%
- half-life [11]: 20.6 h
- inhibition [12]: < 50%
- inhibition [13]: < 50%
- IC50 [14]: 32.9 nM
- inhibition [15]: 50 to 79%
- MRT [16]: 10.8 h
- inhibition [17]: < 50%
- inhibition [18]: < 50%
- inhibition [19]: < 50%
- inhibition at 10 µM (MKN-45): 30.9%
- inhibition [20]: < 50%
- inhibition [21]: < 50%
- IC50 [22]: 7.1 nM
- Vd [23]: 0.6 L/kg
- Vd [24]: 0.4 L/kg
- half-life [25]: 25.4 h
